# Assay results: US20210032257A1, “(E)-1-(4-(DIMETHYLAMINO)BUT-2-ENOYL)PYRROLIDIN-3-YL 4-((3-ISOPROPYL-5-METHYLPYRAZOLO[1,5-A]PYRIMIDIN-7-YL)AMINO)PIPERIDINE-1-CARBOXYLATE FOR INHIBITING CDK7” (Eli Lilly and Company, priority 2017, published 2021)
# Legend:
# Assay in all cases: Biomarker study proliferation (CellTiter-Glo)
# Format in all cases: cell-based
# DMS53 = test system: DMS53
# Procedure, shortened: (§1)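 Profiling across cell lines annotated for ARID1A, KMT2C, KMT2D or RB1 alterations used CellTiter-Glo viability after 7 days' treatment. Responses were classed insensitive, cytostatic or cytotoxic using IC50 1 μM and 70% inhibition cut-offs.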
# HCC70 = test system: HCC70
# Procedure, shortened: as §1
# HEC1A = test system: HEC1A
# Procedure, shortened: as §1
# HEP3B217 = test system: HEP3B217
# Procedure, shortened: as §1
# IGROV1 = test system: IGROV1
# Procedure, shortened: as §1
# MX1 = test system: MX1
# Procedure, shortened: as §1
# NCIH2228 = test system: NCIH2228
# Procedure, shortened: as §1
# NCIH520 = test system: NCIH520
# Procedure, shortened: as §1
# NCIH524 = test system: NCIH524
# Procedure, shortened: as §1
# NCIH727 = test system: NCIH727
# Procedure, shortened: as §1
# NCIH82 = test system: NCIH82
# Procedure, shortened: as §1
# OVCAR8 = test system: OVCAR8
# Procedure, shortened: as §1
# SKOV3 = test system: SKOV3
# Procedure, shortened: as §1
# SKUT1 = test system: SKUT1
# Procedure, shortened: as §1
# SNU475 = test system: SNU475
# Procedure, shortened: as §1
# T47D = test system: T47D
# Procedure, shortened: as §1
# UACC893 = test system: UACC893
# Procedure, shortened: as §1
# UMUC3 = test system: UMUC3
# Procedure, shortened: as §1
smiles,measurement,setting,value
"Cc1cc(NC2CCN(C(=O)O[C@H]3CCN(C(=O)/C=C/CN(C)C)C3)CC2)n2ncc(C(C)C)c2n1 [Example 1, [(3S)-1-[(E)-4-(dimethylamino)but-2-enoyl]pyrrolidin-3-yl] 4-[(3-isopropyl-5-methyl-pyrazolo[1,5-a]pyrimidin-7-yl)amino]piperidine-1-carboxylate]",Anti-proliferation effect % Inh.,"DMS53; DMS53, LUNG, 7 days",66%
same,Anti-proliferation effect Outcome,"DMS53; DMS53, LUNG, 7 days",Cytostatic (cytostatic (IC50<1 μM and % inhibition <70%))
same,IC50,"DMS53; Homo sapiens, DMS-53, 168 h, read-out: Anti-proliferation effect IC50",118 nM
same,Anti-proliferation effect % Inh.,"HCC70; HCC70, BREAST, 7 days",89%
same,Anti-proliferation effect Outcome,"HCC70; HCC70, BREAST, 7 days",Cytotoxic (cytotoxic (IC50<1 μM and % inhibition ≥70%))
same,IC50,"HCC70; Homo sapiens, HCC70, 168 h, read-out: Anti-proliferation effect IC50",38 nM
same,Anti-proliferation effect % Inh.,"HEC1A; HEC1A, ENDOMETRIUM, 7 days",56%
same,Anti-proliferation effect Outcome,"HEC1A; HEC1A, ENDOMETRIUM, 7 days",Cytostatic (cytostatic (IC50<1 μM and % inhibition <70%))
same,IC50,"HEC1A; Homo sapiens, HEC-1-A, 168 h, read-out: Anti-proliferation effect IC50",162 nM
same,IC50,"HEP3B217; 168 h, read-out: Anti-proliferation effect IC50",33 nM
same,Anti-proliferation effect % Inh.,"HEP3B217; HEP3B217, LIVER, 7 days",66%
same,Anti-proliferation effect Outcome,"HEP3B217; HEP3B217, LIVER, 7 days",Cytostatic (cytostatic (IC50<1 μM and % inhibition <70%))
same,IC50,"IGROV1; Homo sapiens, IGROV-1, 168 h, read-out: Anti-proliferation effect IC50",72 nM
same,Anti-proliferation effect % Inh.,"IGROV1; IGROV1, OVARY, 7 days",70%
same,Anti-proliferation effect Outcome,"IGROV1; IGROV1, OVARY, 7 days",Cytotoxic (cytotoxic (IC50<1 μM and % inhibition ≥70%))
same,IC50,"MX1; Homo sapiens, MX1, 168 h, read-out: Anti-proliferation effect IC50",45 nM
same,Anti-proliferation effect % Inh.,"MX1; MX1, BREAST, 7 days",72%
same,Anti-proliferation effect Outcome,"MX1; MX1, BREAST, 7 days",Cytotoxic (cytotoxic (IC50<1 μM and % inhibition ≥70%))
same,IC50,"NCIH2228; Homo sapiens, NCI-H2228, 168 h, read-out: Anti-proliferation effect IC50",276 nM
same,Anti-proliferation effect % Inh.,"NCIH2228; NCIH2228, LUNG, 7 days",57%
same,Anti-proliferation effect Outcome,"NCIH2228; NCIH2228, LUNG, 7 days",Cytostatic (cytostatic (IC50<1 μM and % inhibition <70%))
same,IC50,"NCIH520; Homo sapiens, NCI-H520, 168 h, read-out: Anti-proliferation effect IC50",82 nM
same,Anti-proliferation effect % Inh.,"NCIH520; NCIH520, LUNG, 7 days",77%
same,Anti-proliferation effect Outcome,"NCIH520; NCIH520, LUNG, 7 days",Cytotoxic (cytotoxic (IC50<1 μM and % inhibition ≥70%))
same,IC50,"NCIH524; Homo sapiens, NCI-H524, 168 h, read-out: Anti-proliferation effect IC50",37 nM
same,Anti-proliferation effect % Inh.,"NCIH524; NCIH524, LUNG, 7 days",92%
same,Anti-proliferation effect Outcome,"NCIH524; NCIH524, LUNG, 7 days",Cytotoxic (cytotoxic (IC50<1 μM and % inhibition ≥70%))
same,IC50,"NCIH727; Homo sapiens, NCI-H727, 168 h, read-out: Anti-proliferation effect IC50",117 nM
same,Anti-proliferation effect % Inh.,"NCIH727; NCIH727, LUNG, 7 days",56%
same,Anti-proliferation effect Outcome,"NCIH727; NCIH727, LUNG, 7 days",Cytostatic (cytostatic (IC50<1 μM and % inhibition <70%))
same,IC50,"NCIH82; Homo sapiens, NCI-H82, 168 h, read-out: Anti-proliferation effect IC50",699 nM
same,Anti-proliferation effect % Inh.,"NCIH82; NCIH82, LUNG, 7 days",22%
same,Anti-proliferation effect Outcome,"NCIH82; NCIH82, LUNG, 7 days",Cytostatic (cytostatic (IC50<1 μM and % inhibition <70%))
same,IC50,"OVCAR8; Homo sapiens, OVCAR-8, 168 h, read-out: Anti-proliferation effect IC50",65 nM
same,Anti-proliferation effect % Inh.,"OVCAR8; OVCAR8, OVARY, 7 days",90%
same,Anti-proliferation effect Outcome,"OVCAR8; OVCAR8, OVARY, 7 days",Cytotoxic (cytotoxic (IC50<1 μM and % inhibition ≥70%))
same,IC50,"SKOV3; Homo sapiens, SK-OV-3, 168 h, read-out: Anti-proliferation effect IC50",> 10000 nM
same,Anti-proliferation effect % Inh.,"SKOV3; SKOV3, OVARY, 7 days",27%
same,Anti-proliferation effect Outcome,"SKOV3; SKOV3, OVARY, 7 days",Insensitive (insensitive (IC50≥1 μM))
same,IC50,"SKUT1; Homo sapiens, SK-UT-1, 168 h, read-out: Anti-proliferation effect IC50",41 nM
same,Anti-proliferation effect % Inh.,"SKUT1; SKUT1, SOFT TISSUE, 7 days",89%
same,Anti-proliferation effect Outcome,"SKUT1; SKUT1, SOFT TISSUE, 7 days",Cytotoxic (cytotoxic (IC50<1 μM and % inhibition ≥70%))
same,IC50,"SNU475; Homo sapiens, SNU-475, 168 h, read-out: Anti-proliferation effect IC50",3920 nM
same,Anti-proliferation effect % Inh.,"SNU475; SNU475, LIVER, 7 days",28%
same,Anti-proliferation effect Outcome,"SNU475; SNU475, LIVER, 7 days",Insensitive (insensitive (IC50≥1 μM))
same,Anti-proliferation effect % Inh.,"T47D; BREAST, 7 days",68%
same,Anti-proliferation effect Outcome,"T47D; BREAST, 7 days",Cytostatic (cytostatic (IC50<1 μM and % inhibition <70%))
same,IC50,"T47D; Homo sapiens, 168 h, read-out: Anti-proliferation effect IC50",45 nM
same,IC50,"UACC893; Homo sapiens, UACC-893, 168 h, read-out: Anti-proliferation effect IC50",4150 nM
same,Anti-proliferation effect % Inh.,"UACC893; UACC893, BREAST, 7 days",−51%
same,Anti-proliferation effect Outcome,"UACC893; UACC893, BREAST, 7 days",Insensitive (insensitive (IC50≥1 μM))
same,IC50,"UMUC3; Homo sapiens, UMUC3, 168 h, read-out: Anti-proliferation effect IC50",161 nM
same,Anti-proliferation effect % Inh.,"UMUC3; UMUC3, URINARY, 7 days",70%
same,Anti-proliferation effect Outcome,"UMUC3; UMUC3, URINARY, 7 days",Cytotoxic (cytotoxic (IC50<1 μM and % inhibition ≥70%))
